In patent US20230373985A1 (Origenis Gmbh, priority 2020, published 2023):

Key:
[1] = molecular target: T1, wt human TYK2, catalytic site (Homo sapiens, UniProt P29597); experiment: HTRF KinEASE assay, TYK2; type: biochemical; conditions: 1 μM ATP; read-out: IC50, Activity Toward TYK2
T1 construct: wt human TYK2, catalytic site; purchased SignalChem
T1 sequence (P29597 897-1176 limits assumed): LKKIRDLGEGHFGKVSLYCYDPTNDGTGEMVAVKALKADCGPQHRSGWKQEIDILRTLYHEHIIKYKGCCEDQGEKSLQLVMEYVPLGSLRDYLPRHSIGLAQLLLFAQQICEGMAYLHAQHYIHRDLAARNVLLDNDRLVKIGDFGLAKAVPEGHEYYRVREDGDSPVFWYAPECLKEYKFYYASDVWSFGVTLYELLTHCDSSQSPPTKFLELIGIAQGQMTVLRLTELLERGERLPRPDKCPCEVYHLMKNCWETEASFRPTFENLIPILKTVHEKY
Procedure: (§1) Basic protocol for HTRF KinEASE assay (Cisbio/FRA) inhibitor studies involved two steps: • Enzymatic step: Addition of 4 μL of test compound in corresponding DMSO dilutions, 4 μL of kinase/substrate mixture, 2 μL of ATP into 384 well small volume plates. Incubation for at least 30 minutes at room temperature. • Detection step: Addition of 5 μL antibody and 5 μL streptavidin-XL665, read plate after 60 minutes. Data analysis of emission ratios according KinEASE assay protocol.
(§2) Kinase and assay components were adjusted to final concentrations according to kit protocol. For TYK2: 2 nM wt human TYK2, catalytic site (SignalChem/CAN), 1 μM HTRF KinEASE-TK Substrate-biotin, 1 μM ATP in 1× Kinase Buffer. For JAK1: 4 nM wt human JAK1, catalytic site (ThermoFisher/USA), 1 μM HTRF KinEASE-TK Substrate-biotin, 2.5 μM ATP in 1× Kinase Buffer. For JAK2: 1 nM wt human JAK2, catalytic site (SignalChem/CAN), 1 μM HTRF KinEASE-TK Substrate-biotin, 100 μM ATP in 1× Kinase Buffer.
as §2

[2] = molecular target: T2, wt human JAK1, catalytic site (Homo sapiens, UniProt P23458); experiment: HTRF KinEASE assay, JAK1; type: biochemical; conditions: 2.5 μM ATP; read-out: IC50, Activity Toward JAK1
T2 construct: wt human JAK1, catalytic site; purchased ThermoFisher
T2 sequence (P23458 875-1153 limits assumed): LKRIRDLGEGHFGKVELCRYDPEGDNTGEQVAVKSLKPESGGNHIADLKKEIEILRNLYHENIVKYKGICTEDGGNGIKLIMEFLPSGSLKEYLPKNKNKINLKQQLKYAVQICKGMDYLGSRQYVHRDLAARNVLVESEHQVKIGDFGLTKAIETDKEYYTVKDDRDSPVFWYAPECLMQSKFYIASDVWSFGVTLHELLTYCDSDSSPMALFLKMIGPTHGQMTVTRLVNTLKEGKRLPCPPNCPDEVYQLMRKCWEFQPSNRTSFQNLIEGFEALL
Procedure: as §1
as §2, with “For JAK1: 4 nM wt human JAK1, catalytic site (ThermoFisher/USA), 1 μM HTRF KinEASE-TK Substrate-biotin, 2.5 μM ATP in 1× Kinase Buffer.” left out
as §2, with “For JAK1: 4 nM wt human JAK1, catalytic site (ThermoFisher/USA), 1 μM HTRF KinEASE-TK Substrate-biotin, 2.5 μM ATP in 1× Kinase Buffer.” left out

| IC50 [1] [nM] | IC50 [2] [nM] | SMILES |
| --- | --- | --- |
| 10 to 100 | 100 to 1000 | CC(C)(C)NC(=O)c1ccc(Nc2cn(-c3c(F)cccc3Cl)nc2C(N)=O)cc1F [compound 29] |
| 100 to 1000 | 100 to 1000 | CC(C)(C)OC(=O)N1CCCC(NC(=O)c2ccc(Nc3cn(-c4c(Cl)cccc4Cl)nc3C(N)=O)cc2)C1 (stereo not shown) [compound 33, tert-butyl_3-(4-((3-carbamoyl-1-(2,6-dichlorophenyl)-1H-pyrazol-4-yl)amino)benzamido)piperidine-1-carboxylate] |
| 100 to 1000 | 10 to 100 | NC(=O)c1nn(-c2c(Cl)cccc2Cl)cc1Nc1ccc(C(=O)NC2CCCNC2)cc1 (stereo not shown) [compound 39, 1-(2,6-dichlorophenyl)-4-((4-(piperidin-3-ylcarbamoyl)phenyl)amino)-1H-pyrazole-3-carboxamide] |
| 100 to 1000 | 100 to 1000 | CC(C)(C)C(=O)c1ccc(Nc2cn(-c3c(Cl)cccc3Cl)nc2C(N)=O)cc1 [compound 41, 1-(2,6-dichlorophenyl)-4-((4-pivaloylphenyl)amino)-1H-pyrazole-3-carboxamide] |
| 100 to 1000 | 100 to 1000 | Cc1nc2cc(Nc3cn(-c4c(Cl)cccc4Cl)nc3C(N)=O)ccc2n1C [compound 43, 1-(2,6-dichlorophenyl)-4-((1,2-dimethyl-1H-benzo[d]imidazol-5-yl)amino)-1H-pyrazole-3-carboxamide] |
| 10 to 100 | 100 to 1000 | NC(=O)c1nn(-c2c(Cl)cccc2Cl)cc1Nc1ccc(-c2nnc3n2CCCC3)cc1 [compound 55, 1-(2,6-dichlorophenyl)-4-((4-(5,6,7,8-tetrahydro-[1,2,4]triazolo[4,3-a]pyridin-3-yl)phenyl)amino)-1H-pyrazole-3-carboxamide] |
| 100 to 1000 | 100 to 1000 | NC(=O)c1nn(-c2c(Cl)cccc2Cl)cc1Nc1ccc(-c2nnccc2Cl)cc1 [compound 67, 4-((4-(4-chloropyridazin-3-yl)phenyl)amino)-1-(2,6-dichlorophenyl)-1H-pyrazole-3-carboxamide] |
| 10 to 100 | 100 to 1000 | NC(=O)c1nn(-c2c(Cl)cccc2Cl)cc1Nc1ccc(-c2nnccc2C(F)(F)F)cc1 [compound 69, 1-(2,6-dichlorophenyl)-4-((4-(4-(trifluoromethyl)pyridazin-3-yl)phenyl)amino)-1H-pyrazole-3-carboxamide] |
| 10 to 100 | 100 to 1000 | Cc1ccc(=O)n(-c2ccc(Nc3cn(-c4c(Cl)cccc4Cl)nc3C(N)=O)cc2)n1 [compound 72, 1-(2,6-dichlorophenyl)-4-((4-(3-methyl-6-oxopyridazin-1(6H)-yl)phenyl)amino)-1H-pyrazole-3-carboxamide] |
| 10 to 100 | 100 to 1000 | NC(=O)c1nn(-c2c(Cl)cccc2Cl)cc1Nc1ccc(-n2nnc3c2CCCC3)cc1 [compound 73, 1-(2,6-dichlorophenyl)-4-((4-(4,5,6,7-tetrahydro-1H-benzo[d][1,2,3]triazol-1-yl)phenyl)amino)-1H-pyrazole-3-carboxamide] |
| 10 to 100 | 10 to 100 | NC(=O)c1nn(-c2c(Cl)cccc2Cl)cc1Nc1ccc(C(=O)N2CCOCC2)cn1 [compound 74, 1-(2,6-dichlorophenyl)-4-((5-(morpholine-4-carbonyl)pyridin-2-yl)amino)-1H-pyrazole-3-carboxamide] |
| 100 to 1000 | 100 to 1000 | Cc1ccn(-c2ccc(Nc3cn(-c4c(Cl)cccc4Cl)nc3C(N)=O)cc2)n1 [compound 75, 1-(2,6-dichlorophenyl)-4-((4-(3-methyl-1H-pyrazol-1-yl)phenyl)amino)-1H-pyrazole-3-carboxamide] |
| 100 to 1000 | 100 to 1000 | Cn1ccc(=O)n1-c1ccc(Nc2cn(-c3c(Cl)cccc3Cl)nc2C(N)=O)cc1 [compound 77, 1-(2,6-dichlorophenyl)-4-((4-(2-methyl-5-oxo-2,5-dihydro-1H-pyrazol-1-yl)phenyl)amino)-1H-pyrazole-3-carboxamide] |
| 10 to 100 | 100 to 1000 | Cn1ccc(Oc2ccc(Nc3cn(-c4c(Cl)cccc4Cl)nc3C(N)=O)cc2)n1 [compound 78, 1-(2,6-dichlorophenyl)-4-((4-((1-methyl-1H-pyrazol-3-yl)oxy)phenyl)amino)-1H-pyrazole-3-carboxamide] |
| 10 to 100 | 100 to 1000 | NC(=O)c1nn(-c2c(Cl)cccc2Cl)cc1Nc1ccc(-n2cnc(Cl)n2)cc1 [compound 79, 4-((4-(3-chloro-1H-1,2,4-triazol-1-yl)phenyl)amino)-1-(2,6-dichlorophenyl)-1H-pyrazole-3-carboxamide] |
| 10 to 100 | 10 to 100 | NC(=O)c1nn(-c2c(Cl)cccc2Cl)cc1Nc1ccc(C(=O)N2CCC2)cc1 [compound 92, 4-((4-(azetidine-1-carbonyl)phenyl)amino)-1-(2,6-dichlorophenyl)-1H-pyrazole-3-carboxamide] |
| 10 to 100 | 100 to 1000 | NC(=O)c1nn(-c2c(Cl)cccc2Cl)cc1Nc1ccc(C(=O)N2CCN(CC(F)(F)F)CC2)cc1 [compound 93, 1-(2,6-dichlorophenyl)-4-((4-(4-(2,2,2-trifluoroethyl)piperazine-1-carbonyl)phenyl)amino)-1H-pyrazole-3-carboxamide] |
| < 10 | 100 to 1000 | NC(=O)c1nn(-c2c(Cl)cccc2Cl)cc1Nc1ccc(C(=O)N2CCCCCC2)cc1 [compound 95, 4-((4-(azepane-1-carbonyl)phenyl)amino)-1-(2,6-dichlorophenyl)-1H-pyrazole-3-carboxamide] |
| 10 to 100 | 10 to 100 | NC(=O)c1nn(-c2c(Cl)cccc2Cl)nc1Nc1ccc(-n2ncc3c2CCOC3)cc1 [compound 110, 2-(2,6-Dichloro-phenyl)-5-[4-(6,7-dihydro-4H-pyrano[4,3-c]pyrazol-1-yl)-phenylamino]-2H-[1,2,3]triazole-4-carboxylic acid amide] |
| 100 to 1000 | 100 to 1000 | NC(=O)c1nn(-c2c(Cl)cccc2Cl)nc1Nc1ccc(-n2cc3c(n2)CCOC3)cc1 [compound 111, 2-(2,6-Dichloro-phenyl)-5-[4-(6,7-dihydro-4H-pyrano[4,3-c]pyrazol-2-yl)-phenylamino]-2H-[1,2,3]triazole-4-carboxylic acid amide] |
| < 10 | < 10 | NC(=O)c1nn(-c2c(Cl)cccc2Cl)nc1Nc1ccc(-c2nc(C(F)(F)F)cn2CCO)cc1 [compound 112, 2-(2,6-dichlorophenyl)-5-((4-(1-(2-hydroxyethyl)-4-(trifluoromethyl)-1H-imidazol-2-yl)phenyl)amino)-2H-1,2,3-triazole-4-carboxamide] |
| 10 to 100 | 100 to 1000 | Cn1cc(C(F)(F)F)nc1-c1ccc(Nc2nn(-c3c(Cl)cccc3Cl)nc2C(N)=O)cc1 [compound 115, 2-(2,6-dichlorophenyl)-5-((4-(1-methyl-4-(trifluoromethyl)-1H-imidazol-2-yl)phenyl)amino)-2H-1,2,3-triazole-4-carboxamide] |
| 100 to 1000 | 10 to 100 | COCCn1cc(C(F)(F)F)nc1-c1ccc(Nc2nn(-c3c(Cl)cccc3Cl)nc2C(N)=O)cc1 [compound 118, 2-(2,6-dichlorophenyl)-5-((4-(1-(2-methoxyethyl)-4-(trifluoromethyl)-1H-imidazol-2-yl)phenyl)amino)-2H-1,2,3-triazole-4-carboxamide] |
